Experiments:
[1] = tested on: MLL-AF9 transformed murine bone marrow cells; assay: Colony forming assay in MLL-AF9 transformed murine bone marrow cells; format: cell-based; details: FIG. 10
[2] = tested on: MI-2; assay: Differentiation of human MLL leukemia cell line MI-2; format: cell-based; details: FIG. 7
[3] = tested on: Hoxa9 and Meis1; assay: Expression level of Hoxa9 and Meis1 in MLL-AF9 transformed bone marrow cells; format: cell-based, murine; details: FIG. 1B
[4] = tested on: KOPN8; assay: Differentiation of human MLL leukemia cell line KOPN8; format: cell-based; details: FIG. 7
[5] = tested on: MonoMac-6; assay: Differentiation of human MLL leukemia cell line MonoMac-6; format: cell-based; details: FIG. 7
[6] = tested on: MLL leukemia cells; assay: Cell cycle arrest in MLL leukemia cells; format: cell-based; details: different MLL leukemia cells; FIG. 9
[7] = tested on: MV4;11; assay: Apoptosis in human MLL leukemia cell line MV4;11; format: cell-based; details: FIG. 8A
[8] = tested on: MV4;11; assay: Differentiation of human MLL leukemia cell line MV4;11; format: cell-based; details: FIG. 6, FIG. 7
[9] = tested on: Kasumi-1; assay: Apoptosis in control cell line Kasumi-1 without MLL translocation; format: cell-based; details: Kasumi-1 control cell line without MLL translocation; FIG. 8B
[10] = tested on: MLL-AF9 transformed murine bone marrow cells; assay: Differentiation of MLL-AF9 transformed murine bone marrow cells; format: cell-based
[11] = tested on: ML-2; assay: Apoptosis in human MLL leukemia cell line ML-2; format: cell-based; details: FIG. 8A
[12] = tested on: MLL-AF9 transformed murine bone marrow cells; assay: Proliferation of MLL-AF9 transformed murine bone marrow cells; format: cell-based; details: FIG. 2
[13] = tested on: MLL-ENL transformed murine bone marrow cells; assay: Proliferation of MLL-ENL transformed murine bone marrow cells; format: cell-based; details: FIG. 2

N#Cc1ccc(OCCCN2CCC([C@@](O)(c3ccccc3)C3CCCC3)CC2)cc1 [Compound B20]
transforming properties of MLL-AF9 fusion protein (colony number, morphology of colonies) [1]: reduce transforming properties | differentiation (change in the CD11b expression and change in morphology of cells) [2]: induce differentiation | expression level of Hoxa9 and Meis1 [3]: strongly downregulates | differentiation (change in the CD11b expression and change in morphology of cells) [4]: induce differentiation | differentiation (change in the CD11b expression and change in morphology of cells) [5]: induce differentiation | cell cycle arrest [6]: induce cell cycle arrest | apoptosis [7]: induce apoptosis | differentiation (CD11b expression and morphology change) [8]: induce differentiation | apoptosis [9]: No effect on apoptosis | differentiation as assessed by increased expression of the CD11b differentiation marker ([10]; FIG. 4): induces differentiation | differentiation as assessed by significant change in morphology ([10]; FIG. 5): induces differentiation | apoptosis [11]: induce apoptosis

N#Cc1ccc(OCCCN2CCC(C(O)c3ccccc3)CC2)cc1 (stereo not shown) [B76 (NC)]
transforming properties of MLL-AF9 fusion protein (colony number, morphology of colonies) [1]: but not NC reduce transforming properties | inhibition of proliferation [12]: No such effect | cell cycle arrest [6]: No such effect | apoptosis [7]: but not the control compound (NC) induce apoptosis | apoptosis [9]: No effect on apoptosis | inhibition of proliferation [13]: No such effect | apoptosis [11]: but not the control compound (NC) induce apoptosis
